What was measured:
spleen = assay: Spleen coefficient, psoriasis model mice; type: in vivo, BALB/c male mice; settings: 12 days, compared with model control group
Method: A shaving area on the back of the mice in each group is 2.5 cm×3 cm, and the vellus is removed with mild depilatory cream. The mice of each group except the blank control group are modeled by administrating 62.5 mg 5% imiquimod cream on the shaving area until the skin is thickened and has erythema and silver scales for modeling completely. During the model establishment, 5% imiquimod cream is administrated once a day, and continuously administrated for 14 days. On the third day, the model establishment is continued and drugs are administered at the same time, wherein the mice in the AC intragastric administration group (8 mg/kg), the anemoside B4 intragastric (i.g.) administration group (5 mg/kg), the anemoside B4 intragastric administration group (10 mg/kg), and the anemoside B4 intragastric administration group (20 mg/kg) are administrated once a day, and continuously administrated for 12 days. […] The mice in the blank control group and the model control group are applied 62.5 mg Vaseline to the skin lesions once a day, and continuously applied for 12 days. The weight of the mice is recorded for counting the weight change of the mice. After blood collection of the mice in each group of the first animal group, the mice are killed by dislocation of cervical vertebra, quickly separated the spleen and weighed to obtain the wet weight of the spleen, recording and calculating the spleen coefficient, wherein the spleen coefficient (%)=(spleen wet weight/body weight)×100%.

IL-12 = IL-12 level in skin tissue, psoriasis model mice; type: in vivo, BALB/c male mice; settings: 12 days, compared with model control group
Method: (§1) A shaving area on the back of the mice in each group is 2.5 cm×3 cm, and the vellus is removed with mild depilatory cream. The mice of each group except the blank control group are modeled by administrating 62.5 mg 5% imiquimod cream on the shaving area until the skin is thickened and has erythema and silver scales for modeling completely. During the model establishment, 5% imiquimod cream is administrated once a day, and continuously administrated for 14 days. On the third day, the model establishment is continued and drugs are administered at the same time, wherein the mice in the AC intragastric administration group (8 mg/kg), the anemoside B4 intragastric (i.g.) administration group (5 mg/kg), the anemoside B4 intragastric administration group (10 mg/kg), and the anemoside B4 intragastric administration group (20 mg/kg) are administrated once a day, and continuously administrated for 12 days. […] The mice in the blank control group and the model control group are applied 62.5 mg Vaseline to the skin lesions once a day, and continuously applied for 12 days. The weight of the mice is recorded for counting the weight change of the mice. 100 mg skin tissue of the mice in each group of the first animal group are precisely weighed, added 0.9 mL ice normal saline, homogenized with the tissue grinder, and centrifuged at 4° C. and 3000 rpm for 10 min. The supernatant is collected, and IL-12, IL-17, IL-6 and IL-1β level in the skin tissue are measured by kits according to the procedures of specification.

IL-17 [1] = assay: IL-17 level in skin tissue, psoriasis model mice; type: in vivo, BALB/c male mice; settings: 12 days, compared with model control group
Method: as §1

M-CSF = M-CSF level in serum by ELISA, psoriasis model rats; type: in vivo, SD male rats; settings: 7 days, vs model control group
Method: (§2) 60 SPF-grade SD male rats in the second animal group are divided into 6 groups: a blank control group, a model control group, an anemoside B4 intragastric administration group (5 mg/kg), an anemoside B4 intragastric administration group (10 mg/kg), an anemoside B4 intragastric administration group (20 mg/kg), and an acitretin intragastric administration group (5 mg/kg), and are respectively expressed into the blank control group, the model group, anemoside B4 5 mg/kg, anemoside B4 10 mg/kg, anemoside B4 20 mg/kg, and acitretin 5 mg/kg in FIGS. 3, 4 and 5 for convenience. A shaving area on the back of the rats in each group is 2.5 cm×3 cm, and the vellus is removed with mild depilatory cream. The rats of each group except the blank control group are modeled by administrating 62.5 mg 5% imiquimod cream on the shaving area until the skin is thickened and has erythema and silver scales for modeling completely.
(§3) 5% imiquimod cream is administrated once a day, and continuously administrated for 8 days for model establishment. On the second day, the rats in each group are continuously intragastric (i.g.) administered drugs for 7 days.
(§4) After administration, blood is taken from abdominal aorta of the rats in each group of the second animal group, centrifuged to collect the serum, and measured the M-CSF, VEGF, IL-6 and IL-17 level in the serum by ELISA kits according to the procedures of specification.

IL-17 [2] = assay: IL-17 level in serum by ELISA, psoriasis model rats; type: in vivo, SD male rats; settings: 7 days, vs model control group
Method: as §2, §3, §4

IL-6 = IL-6 level in skin tissue, psoriasis model mice; type: in vivo, BALB/c male mice; settings: 12 days, compared with model control group
Method: as §1

[3] = test system: 5% imiquimod-induced psoriatic lesions; assay: Psoriatic lesions and PASI, 5% imiquimod-induced psoriasis model in rats (second animal group); type: in vivo, SD male rats; settings: 7 days; for erythema and skin lesions of the rats: compared to model control group; for PASI: compared with model control group
Method: as §2, §3
The psoriasis area and severity index (PASI) of the mice in the first animal group and the rats in the second animal group is performed by taking photographs of the shaving area, giving 0-4 scores for the degree of erythema, scales and infiltration thickness in the skin lesions according to a PASI standard, and obtaining the total scores by summing the scores of the three parts; wherein the PASI standard is as follows: none 0, mild 1, moderate 2, severe 3, and extremely severe 4.

VEGF = VEGF level in serum by ELISA, psoriasis model rats; type: in vivo, SD male rats; settings: 7 days, vs model control group
Method: as §2, §3, §4

[4] = intragastric 5 mg/kg once a day
[5] = intragastric 10 mg/kg once a day
[6] = intragastric 20 mg/kg once a day

Compound: C=C(C)[C@@H]1CC[C@]2(C(=O)O[C@@H]3O[C@H](CO[C@@H]4O[C@H](CO)[C@@H](O[C@@H]5O[C@@H](C)[C@H](O)[C@@H](O)[C@H]5O)[C@H](O)[C@H]4O)[C@@H](O)[C@H](O)[C@H]3O)CC[C@]3(C)[C@H](CC[C@@H]4[C@@]5(C)CC[C@H](O[C@@H]6OC[C@H](O)[C@H](O)[C@H]6O[C@@H]6O[C@@H](C)[C@H](O)[C@@H](O)[C@H]6O)[C@@](C)(CO)[C@@H]5CC[C@]43C)[C@H]12 [anemoside B4]
- enlargement of the spleen (spleen; [4]): significantly relieved
- spleen coefficient (spleen; [4]): significantly decreased
- enlargement of the spleen (spleen; [5]): significantly relieved
- spleen coefficient (spleen; [5]): significantly decreased
- enlargement of the spleen (spleen; [6]): significantly relieved
- spleen coefficient (spleen; [6]): significantly decreased
- level of IL-12 in the skin tissue (IL-12; [4]): significantly reduced
- level of IL-12 in the skin tissue (IL-12; [5]): significantly reduced
- level of IL-12 in the skin tissue (IL-12; [6]): significantly reduced
- level of IL-17 in the skin tissue (IL-17 [1]; [4]): significantly reduced
- level of IL-17 in the skin tissue (IL-17 [1]; [5]): significantly reduced
- level of IL-17 in the skin tissue (IL-17 [1]; [6]): significantly reduced
- M-CSF level in serum (M-CSF; intragastric 5 mg/kg): significantly decreased
- M-CSF level in serum (M-CSF; intragastric 10 mg/kg): significantly decreased
- M-CSF level in serum (M-CSF; intragastric 20 mg/kg): significantly decreased
- IL-17 level in serum (IL-17 [2]; intragastric 5 mg/kg): significantly decreased
- IL-17 level in serum (IL-17 [2]; intragastric 10 mg/kg): significantly decreased
- IL-17 level in serum (IL-17 [2]; intragastric 20 mg/kg): significantly decreased
- level of IL-6 in the skin tissue (IL-6; [4]): significantly reduced
- level of IL-6 in the skin tissue (IL-6; [5]): significantly reduced
- level of IL-6 in the skin tissue (IL-6; [6]): significantly reduced
- erythema and skin lesions of the rats ([3]; intragastric 5 mg/kg): lightened
- erythema and skin lesions of the rats ([3]; intragastric 10 mg/kg): lightened
- PASI ([3]; intragastric 10 mg/kg): significantly decreased
- erythema and skin lesions of the rats ([3]; intragastric 20 mg/kg): lightened
- PASI ([3]; intragastric 20 mg/kg): significantly decreased
- VEGF level in serum (VEGF; intragastric 5 mg/kg): significantly decreased
- VEGF level in serum (VEGF; intragastric 10 mg/kg): significantly decreased
- VEGF level in serum (VEGF; intragastric 20 mg/kg): significantly decreased

— patent US11865129B2, “Application of anemoside B4 in preparation of a drug for treatment or prevention of psoriasis” (GUANGXI XINHAI PHARMACEUTICAL TECHNOLOGY CO., LTD., priority 2021, dated 2024)
